Reference: paper PMC3060972 (Peptides, 2011)

What was measured:
E. coli [1] = experiment: Radial diffusion assay; assay type: cell-based; settings: qualitative comparison with wild type BF2
E. coli [2] = experiment: Membrane permeability by propidium iodide; assay type: cell-based; settings: qualitative comparison with wild type BF2; PI uptake in E. coli

Row | Sequence | ANTIMICROBIAL ACTIVITY compared to wild type (E. coli [1]) | MEMBRANE PERMEABILIZATION compared to wild type (E. coli [2])
1 | TRSSRAGLQFAPGRVHRLLRK [P11A/V12P] | LOWER | SIMILAR
2 | TRSSRAPLQFAVGRVHRLLRK [P11A/G7P] | SIMILAR | HIGHER
3 | TRSSRAGLQFAVGRVHRLLRK [P11A] | LOWER | HIGHER
4 | TRSSRAGLQFAVGRPHRLLRK [P11A/V15P] | LOWER | SIMILAR
